Results: patent US20140363406A1, “ESTROGEN METABOLITE LEVELS AND CYP1B1 POLYMORPHISMS IN LUNG CANCER DIAGNOSIS, PROGNOSIS, AND RISK ASSESSMENT” (Institute for Cancer Research d/b/a The Research Institute …, priority 2012, published 2014)

Target: T1, CYP1B1 (Mus musculus, UniProt Q64429)
T1 sequence (Q64429 1-543): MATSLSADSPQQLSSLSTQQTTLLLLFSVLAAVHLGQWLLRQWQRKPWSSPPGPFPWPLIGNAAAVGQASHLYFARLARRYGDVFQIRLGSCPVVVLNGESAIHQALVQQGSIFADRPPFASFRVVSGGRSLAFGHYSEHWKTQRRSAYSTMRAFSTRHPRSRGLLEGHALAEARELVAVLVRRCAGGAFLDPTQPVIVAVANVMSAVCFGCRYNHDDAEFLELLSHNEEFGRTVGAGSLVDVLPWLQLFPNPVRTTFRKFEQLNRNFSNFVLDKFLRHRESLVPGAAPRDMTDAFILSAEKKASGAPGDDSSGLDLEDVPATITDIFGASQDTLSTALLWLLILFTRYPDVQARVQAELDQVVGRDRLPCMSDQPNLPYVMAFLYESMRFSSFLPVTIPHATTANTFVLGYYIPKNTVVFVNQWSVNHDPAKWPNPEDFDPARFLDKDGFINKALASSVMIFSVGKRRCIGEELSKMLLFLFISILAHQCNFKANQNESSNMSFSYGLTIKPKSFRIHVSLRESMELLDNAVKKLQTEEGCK
Experiment: Impact of Cyp1b1 deletion on lung estrogen/EM levels (Cyp1b1-KO vs Cyp1b1-WT 129SvJ mice), LC-MS2
Experimental: Animals. […] Smoke exposures were performed on female C57/B6 mice (1.5-2 years old) carrying a human APOE*4 transgene that were part of an atherosclerosis study at Duke University and fed a high-fat diet TD.88051. Animals had free access to food and water. All animal experimentation was approved by the Institutional Animal Care and Use Committees at Fox Chase Cancer Center and Duke University.
Genotyping. PCR-based genotyping of Cyp1b1 wild-type (Cyp1b1-WT) and knockout (Cyp1b1-K0) mice was performed using Choice Taq Blue DNA Polymerase Master mix (Denville Scientific, South Plainfield, N.J.) according to the following protocol: Wild-type primers—[…]
Lung tissue collection. Following euthanasia, the lungs were perfused by intracardiac injection with 30 ml phosphate buffered saline to flush out the blood. Perfused tissues were snap-frozen in liquid nitrogen and stored at −80° C. The accessory lobe of the lung was reserved for RNA extraction, whereas the remaining lobes were processed for estrogen metabolite analyses.
Sample preparation. Lung tissue samples (0.1-0.2 g per sample) from Cyp1b1-WT or Cyp1b1-KO mice (female and male, 12-14 weeks of age, n=4-5 per group) were thawed at room temperature, minced with scissors and transferred into 1.5 ml Eppendorf tubes. […] The tissue was homogenized on ice using a Tissue Tearor™ (Cole-Parmer, Vernon Hills, Ill.) at low and high speeds in two consecutive 15 s increments for a total of 30 s, and further sonicated on ice (five cycles of 10 s pulses with 10 s breaks between pulses). Eight milliliters of ethanol:acetone and […] each of stable isotope-labeled estrogen internal standards (0.32 ng/ml working standard solutions) were added to each tissue homogenate. The mixture was incubated on a rotator at room temperature for 1 h and centrifuged at 3000 ×g for 30 min. The ethanol:acetone tissue extract was transferred to a clean glass tube and dried under nitrogen gas at 60° C. for 60 min (Reacti-Vap III™, Pierce, Rockford, Ill.). The residue was redissolved in 4 ml of methanol, vortexed for 1 min, chilled at -80° C. for 1 h, returned to room temperature and centrifuged at 3000 × g for 20 min. The methanolic phase was transferred to a clean glass tube and dried under nitrogen gas. The residue was redissolved in 100 μl of ethanol and vortexed briefly. This step was followed by the addition of 1.5 ml of 100 mM sodium acetate buffer, pH 4.6, and 5 ml of dichloromethane to the residue and incubation at room temperature on a rotator for 30 min.
The extract was chilled at −80° C. for 10 min, returned to room temperature and centrifuged at 3000 × g for 20 min. The dichloromethane phase was transferred to a clean tube and dried. To each dried sample, 40 μl of 0.1 M sodium bicarbonate buffer, pH 9.0, and 40 μl of dansyl chloride solution (1 mg/ml in acetone) were added. After vortexing for 10 s, samples were heated at 70° C. (Reacti-Therm III™ Heating Module, Pierce, Rockford, Ill.) for 10 min to form the EM and SI-EM dansyl derivatives. All samples were centrifuged at 3000 ×g for 20 min and analyzed using LC-M5^2. The efficiency of extracting estrogen and its metabolites from the tissue cannot be measured accurately because a known amount of each metabolite cannot be placed in the tissue prior to extraction. Furthermore, the amount of estrogens/EM present at baseline is unknown.
LC-MS^2 analysis was performed using a Shimadzu Prominence UFLC system (Shimadzu Scientific Instruments, Columbia, Md.) coupled with a TSQ™ Quantum Ultra triple quadrupole mass spectrometer (Thermo Electron, San Jose, Calif.). The LC separation was carried out on a 50 mm long×2 mm […] column packed with 2.5 μm Synergi Hydro-RP particles (Phenomenex, Torrance, Calif.) maintained at 40° C. A 20 μl aliquot of each sample was injected onto the column.

Compound: C[C@]12CC[C@@H]3c4cc(O)c(O)cc4CC[C@H]3[C@@H]1CCC2=O [2-OHE1, 2-hydroxyestrone]
- percentage of total estrogen, male versus female (in words) (Cyp1b1-KO mice): no significant difference
- increase in lung level in Cyp1b1-KO compared with WT controls (females): 3 fold
- increase in lung level in Cyp1b1-KO compared with WT controls (males): 1.7 fold

Compound: C[C@]12CC[C@@H]3c4ccc(O)c(O)c4CC[C@H]3[C@@H]1CCC2=O [4-OHE1, 4-hydroxyestrone]
- decrease in lung level by deletion of Cyp1b1 (female Cyp1b1-KO vs WT): 21 fold
- lung level in Cyp1b1-KO as % of WT controls (females): 4.7%
- decrease in lung level by deletion of Cyp1b1 (male Cyp1b1-KO vs WT): 14 fold
- lung level in Cyp1b1-KO as % of WT controls (males): 7.4%

Compound: C[C@]12CC[C@@H]3c4ccc(O)c(O)c4CC[C@H]3[C@@H]1CC[C@@H]2O [4-OHE2, 4-hydroxyestradiol]
- lung level reduced in Cyp1b1-KO compared with Cyp1b1-WT controls (both sexes): ~50%
- lung level reduced in Cyp1b1-KO compared with Cyp1b1-WT controls (females): 60%
- lung level reduced in Cyp1b1-KO compared with Cyp1b1-WT controls (males): 56%
